According to patent publication US20100173923A1, “4 (PYRROLOPYRIDINYL)PYRIMIDINYL-2-AMINE DERIVATIVES” (priority 2006, published 2010):

test system: tumour cells (for example commercially available colon carcinoma cell lines); test: Inhibition of the proliferation/vitality of tumour cells in vitro (Crystal Violet staining); type: cell-based; conditions: 48 hours incubation with test substance, serum-containing medium, Crystal Violet absorbance, value given as range
Method: In the present experiment description, the inhibition of tumour cell proliferation/tumour cell vitality by active ingredients is described.
The cells are sown in a suitable cell density in microtitre plates (96-well format). On the next day, the test substances are added in the form of a concentration series. After two further days of cultivation in serum-containing medium, the cell density is determined photometrically by staining the cells with Crystal Violet.
For example commercially available colon carcinoma cell lines.
The cells are cultivated in medium. At intervals of 3-4 days, the cells are detached from the culture dishes with the aid of trypsin solution and sown in suitable dilution in fresh medium. The cells are cultivated at 37° Celsius and 10% CO2.
• A cell culture bottle is washed with 1×PBS • Addition of 3 ml of 1× trypsin solution. Incubation at 37° C. for 5 min in an incubator. • Termination by addition of 7 ml of medium • Centrifugation of the cells (for example for 5 minutes at 150×g (1200 rpm)) • Remove medium by tilting and resuspend cells in fresh medium • Cell counting, for example using Trypan Blue solution (1:2 dilution) in counting chamber • Dilute cell suspension to 25,000 cells/ml and plate out 100 μl/well (2500 cells/well) • Incubation of the microtitre plate at 37° C. in 10% CO2 overnight
• The test substances are dissolved, for example, in DMSO and subsequently employed in corresponding concentration (if desired in a dilution series) in the cell culture medium. The dilution steps can be adapted depending on the efficiency of the active ingredients and the desired spread of the concentrations. Cell culture medium is added to the test substances in corresponding concentrations. Within the dilution series, the final concentration of DMSO in the cell culture medium can be constant (for example at 0.5%). The addition of the test substances to the cells can take place one day after sowing of the cells. To this end, the medium is removed from the cells, and the test substance dilutions are added to the cells (in the desired concentrations in the cell culture medium). […]
• The medium is removed from the cells, and the cells are washed with PBS. […] An absorption measurement is carried out at corresponding wavelength, for example 550 nm, in a microtitre plate reader (for example TECAN Genios No F129004). […]
The absorbance value of the medium control (no cells and test substances used) is subtracted from all other absorbance values. The controls (cells without test substance) with the solvent DMSO are set equal to 100 percent, and all other absorbance values are set in relation thereto (for example in % of control):
IC50 values (50% inhibition) are determined with the aid of statistics programs, such as, for example, RS1.

CNc1nccc(-c2cn(CCOC)c3ncccc23)n1 [Compound A4] and COCCn1cc(-c2ccnc(Nc3ccccc3)n2)c2cccnc21 [Compound A2, 1-(2-methoxyethyl)-3-(2-phenylaminopyrimidin-4-yl)-1H-pyrrolo[2,3-b]pyridine] fall in the same range of IC50: 5 to 50 µM for the first, 5 to 50 µM for the second.

Compared with c1ccc(Nc2nccc(-c3c[nH]c4ncccc34)n2)cc1 [Compound A1, 3-(2-phenylaminopyrimidin-4-yl)-1H-pyrrolo[2,3-b]pyridine], CNc1nccc(-c2c[nH]c3ncccc23)n1 [Compound A3] is higher in IC50: 0.05 to 0.5 µM for the first, 0.5 to 5 µM for the second. The first is the more potent here.
